IC50 data for 3 compounds are collected here from patent US6451820B1, “Substituted 1-(4-aminophenly)triazoles and their use as anti-inflammatory agents” (Boehringer Ingelheim Pharmaceuticals, Inc., priority 2000, dated 2002).

This assay has as its system IL-2 promoter/enhancer. Kind of assay: IL-2 promoter assay (luciferase reporter in J.1F/C6 Jurkat cells). The class given is cell-based. The following applies: Homo sapiens. The source says: The IL-2 promoter assay measures transcriptional activation of a luciferase reporter gene which has been placed under control of the IL-2 promoter/enhancer. All the known regulatory features of the IL-2 gene are contained within a ˜300 bp sequence immediately upstream of the open reading frame. The region −328 to +35 relative to the transcription start site of the IL-2 gene is obtained by […] of human genomic DNA and is subcloned into the promoterless luciferase reporter vector pGL2-Basic (Promega). The resulting construct, pIL2P-luc, and a vector containing a neomycin resistance gene, pcDNA/Neo (Invitrogen), are linearized and stably transfected into Jurkat cells (a human T cell line) by electroporation.
For screening compounds, the cells are pelleted by centrifugation, washed once with PBS, resuspended in RPMI (phenol red-free) containing 5% FBS, and dispensed into 96-well, white microtiter plates (Packard) at 50,000 cells/well. The cells are pre-incubated with compounds (1 μg/ml) for 15 min prior to addition of ionomycin (1 μg/ml) and PMA (10 ng/ml) in a final volume of 100 μl. Following a 5 hr incubation at 37° C. in a humidified incubator, 100 μl of Luc-Lite lysis buffer/luciferase assay buffer (Promega) is added and luminescence measured using a Packard TopCount scintillation counter/luminometer.
For orientation: Reporter assays use an easily measured gene product as a stand-in for the process of interest.

[1] abbreviates: J.1F/C6 Jurkat cells stimulated with ionomycin and PMA, luciferase reporter, read-out: IC50.

Broadly, the IC50 is the concentration at which inhibition is half-maximal.

Molecules are shown by their SMILES. Like-named read-outs stand apart in the source and are kept apart here. A value given as a limit tells only on which side of the number the result lay.

`CSc1nc(-c2ccncc2)nn1-c1ccc(NC(=O)c2cccnc2)cc1` [Example 1]: the IC50 under setting [1] is < 10 µM.
On the same count and under the same terms, the result for `CSc1nc(-c2ccncc2)nn1-c1ccc(NCc2sccc2C)cc1` [Example 2, (3-Methylthien-2-ylmethyl)-[4-(5-methylthio-3-pyridin-4-yl-1H-1,2,4-triazol-1-yl)phenyl]amine] reads < 10 µM.
`C=CC[C@@H]1/C=C(\C)C[C@H](C)C[C@H](OC)[C@H]2O[C@@](O)(C(=O)C(=O)N3CCCC[C@H]3C(=O)O[C@H](/C(C)=C/[C@@H]3CC[C@@H](O)[C@H](OC)C3)[C@H](C)[C@@H](O)CC1=O)[C@H](C)C[C@@H]2OC` [FK506, reference compound]: the IC50 (J.1F/C6 Jurkat cells treated with ionomycin and PMA, cell line validation, read-out: IC50, inhibition of luciferase activity) is 0.0003 µM.
